Experimental data published in patent US20240174690A1, “ANNULATED 2-AMINO-3-CYANO THIOPHENES AND DERIVATIVES FOR THE TREATMENT OF CANCER” (BOEHRINGER INGELHEIM INTERNATIONAL GMBH, priority 2021, published 2024).

How the values were obtained:
NCI-H2122 cells = assay: NCI-H2122 CTG proliferation assay (120 h) (NSCLC, G12C); format: cell-based; conditions: Homo sapiens
Procedure, shortened: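 NCI-H2122 cells (KRAS G12C NSCLC), 200 per well in RPMI with 10% FCS, were dosed with compound on day 1 and incubated 120 h at 37 °C. Viability was read by CellTiter-Glo luminescence as percent of DMSO control, and IC50 was fitted with a four-parameter model.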

GP2D cells = assay: GP2D proliferation assay (120 h) (colorectal cancer, G12D); format: cell-based
Protocol: GP2D Proliferation Assay (120 h) (Colorectal Cancer, G12D)
GP2D cells (ATCC No. CRL-5807) are dispensed into white 384-well plates, flat and white bottom (Perkin Elmer, 6007680) at a density of 500 cells per well in 40 μl DMEM (Sigma, D6429)+1×GlutaMAX (Gibco, 35050038)+10% FCS (fetal calf serum). […] Compounds (10 mM stock in DMSO) are added at logarithmic dose series using the HP Digital Dispenser D300 (Tecan), including DMSO controls and normalizing for added DMSO. For the TO time point measurement, untreated cells are analyzed at the time of compound addition. Plates are incubated for 120 h, and cell viability is measured using CellTiter-Glo luminescent cell viability reagent (Promega product code G7570). Viability (stated as percent of control) is defined as relative luminescence units RLU of each well divided by the RLU of cells in DMSO controls. IC50 values are determined from viability measurements by non-linear regression using a four parameter model.

Row | SMILES | IC50 (NCI-H2122 cells) | IC50 (GP2D cells)
1 | C[C@H](Oc1nc(-c2noc3c2CCC[C@@]32CCCc3sc(N)c(C#N)c32)nc(N2CCNC3(CC3)C2)c1F)[C@@H]1C[C@@H](F)CN1C [II-155] | 929 nM | 1 nM
2 | C[C@H](Oc1nc(-c2noc3c2CCC[C@@]32CCCc3sc(N)c(C#N)c32)nc(N2CCN(C)C3(CC3)C2)c1Cl)[C@@H]1C[C@@H](F)CN1C [II-176] | – | 50 nM
3 | C[C@H]1CNCCCN1c1cc(-c2ccn(C)n2)nc(-c2noc3c2CCC[C@@]32CCCc3sc(N)c(C#N)c32)n1 [II-140] | 8240 nM | –
4 | CO[C@H]1CCN(C)[C@@H]1[C@H](C)Oc1cc(N2CCN(C)C3(CC3)C2)nc(-c2noc3c2CCC[C@@]32CCCc3sc(N)c(C#N)c32)n1 [II-186] | – | 2 nM
5 | C[C@H](Oc1cc(N2Cc3cnn(C)c3C2)nc(-c2onc3c2CCC[C@@]32CCCc3sc(N)c(C#N)c32)n1)[C@@H]1CCCN1C [I-19] | 2710 nM | –
6 | CC(C)N1CCCN(c2cc(-c3ccn(C)n3)nc(-c3noc4c3CCC[C@@]43CCCc4sc(N)c(C#N)c43)n2)[C@@H](C)C1 [II-170] | 942 nM | –
7 | C[C@H]1CNCCCN1c1cc(-n2ccnc2)nc(-c2noc3c2CCC[C@@]32CCCc3sc(N)c(C#N)c32)n1 [II-142] | 10500 nM | –
8 | C[C@@H]1CN(c2nc(-c3noc4c3CCC[C@@]43CCCc4sc(N)c(C#N)c43)nc(O[C@@H](C)[C@@H]3C[C@@H](F)CN3C)c2F)CC2(CC2)N1 [II-158] | – | 9 nM
9 | CO[C@@H]1C[C@@H]([C@H](C)Oc2cc(N3CCNC4(CC4)C3)nc(-c3noc4c3CCC[C@@]43CCCc4sc(N)c(C#N)c43)n2)N(C)C1 [II-187] | – | 1 nM
10 | C[C@H](Oc1nc(-c2noc3c2CCC[C@@]32CCCc3sc(N)c(C#N)c32)nc(N2CCNC3(CC3)C2)c1Cl)[C@@H]1C[C@@H](F)CN1C [II-156] | – | 1 nM
11 | C[C@H](Oc1cc(N2CCNC3(COC3)C2)nc(-c2noc3c2CCC[C@@]32CCCc3sc(N)c(C#N)c32)n1)[C@@H]1C[C@@H](F)CN1C [II-150] | 2510 nM | 1 nM
12 | C[C@H](Oc1cc(N2CCN(C)C3(CCOC3)C2)nc(-c2noc3c2CCC[C@@]32CCCc3sc(N)c(C#N)c32)n1)[C@@H]1C[C@@H](F)CN1C (some centres unmarked) [II-151] | 3580 nM | 32 nM
13 | CO[C@@H]1C[C@@H]([C@H](C)Oc2cc(N3CCN(C)C4(COC4)C3)nc(-c3noc4c3CCC[C@@]43CCCc4sc(N)c(C#N)c43)n2)N(C)C1 [II-153] | – | 14 nM
14 | CC(C)N1CCCN(c2cc(-n3ccnc3)nc(-c3noc4c3CCC[C@@]43CCCc4sc(N)c(C#N)c43)n2)[C@@H](C)C1 [II-169] | 2280 nM | 1870 nM
15 | CO[C@@H]1C[C@@H]([C@H](C)Oc2cc(N3CCN(C)C4(CC4)C3)nc(-c3noc4c3CCC[C@@]43CCCc4sc(N)c(C#N)c43)n2)N(C)C1 [II-152] | – | 13 nM
16 | C[C@H](Oc1cc(N2CCNC[C@@]23CCOC3)nc(-c2onc3c2CCC[C@@]32CCCc3sc(N)c(C#N)c32)n1)[C@@H]1CCCN1C [I-13] | 6470 nM | –
17 | C[C@H](Oc1nc(-c2noc3c2CCC[C@@]32CCCc3sc(N)c(C#N)c32)nc(N2C[C@H](C)NC3(CC3)C2)c1F)[C@@H]1C[C@@H](F)CN1C [II-157] | – | 2 nM
18 | C[C@H](Oc1cc(N2CCN(C)C3(CC3)C2)nc(-c2noc3c2CCC[C@@]32CCCc3sc(N)c(C#N)c32)n1)[C@@H]1C[C@@H](F)CN1C [II-149] | 2550 nM | 8 nM
19 | C[C@H](Oc1cc(N2CC3COCC(C2)N3)nc(-c2noc3c2CCC[C@@]32CCCc3sc(N)c(C#N)c32)n1)[C@@H]1CCCN1C [II-160] | 3190 nM | –
20 | CO[C@@H]1C[C@@H]([C@H](C)Oc2cc(-c3cnn(C)n3)nc(-c3onc4c3CCC[C@@]43CCCc4sc(N)c(C#N)c43)n2)N(C)C1 [I-17] | 4230 nM | –
21 | C[C@H](Oc1cc(-c2ccn(C)n2)nc(-c2noc3c2CCC[C@@]32CCCc3sc(N)c(C#N)c32)n1)[C@@H]1C[C@H](F)CN1C [II-144] | 3690 nM | > 1000 nM
22 | CCN1CCN(c2cc(O[C@@H](C)[C@@H]3C[C@@H](F)CN3C)nc(-c3noc4c3CCC[C@@]43CCCc4sc(N)c(C#N)c43)n2)CC12CC2 [II-185] | – | 15 nM
23 | C[C@H](Oc1cc(N2CCNC[C@]23CCOC3)nc(-c2onc3c2CCC[C@@]32CCCc3sc(N)c(C#N)c32)n1)[C@@H]1CCCN1C [I-12] | 3280 nM | 1 nM

Second part, the compound after the results:

Row | IC50 (NCI-H2122 cells) | IC50 (GP2D cells) | SMILES
24 | 4850 nM | – | C[C@@H]1CN(c2cc(O[C@@H](C)[C@@H]3CCCN3C)nc(-c3noc4c3CCC[C@@]43CCCc4sc(N)c(C#N)c43)n2)CCN1 [II-161]
25 | 768 nM | – | C[C@H](Oc1cc(-n2cc(-c3cncs3)nn2)nc(-c2noc3c2CCC[C@@]32CCCc3sc(N)c(C#N)c32)n1)[C@@H]1CCCN1C [II-125]
26 | – | 39 nM | C[C@H](Oc1cc(-n2cc3c(n2)CNC3)nc(-c2noc3c2CCC[C@@]32CCCc3sc(N)c(C#N)c32)n1)[C@@H]1C[C@@H](F)CN1C [II-154]
27 | 198 nM | – | C[C@H](Oc1cc(-c2ccn(C[C@H]3CCOC3)n2)nc(-c2noc3c2CCC[C@@]32CCCc3sc(N)c(C#N)c32)n1)[C@@H]1CCCN1C [II-129]
28 | 1760 nM | – | C[C@H](Oc1cc(-n2cncn2)nc(-c2onc3c2CCC[C@@]32CCCc3sc(N)c(C#N)c32)n1)[C@@H]1CCCN1C [I-18]
29 | 188 nM | – | C[C@H](Oc1cc(-n2cc(C(=O)N(C)C)nn2)nc(-c2noc3c2CCC[C@@]32CCCc3sc(N)c(C#N)c32)n1)[C@@H]1CCCN1C [II-132]
30 | – | 3 nM | C[C@H](Oc1cc(-n2cc3c(n2)CN(C)C3)nc(-c2noc3c2CCC[C@@]32CCCc3sc(N)c(C#N)c32)n1)[C@@H]1CCCN1C [II-174]
31 | – | 137 nM | C[C@H](Oc1cc(-n2cc3ccn([C@@H]4CCOC4)c(=O)c3n2)nc(-c2noc3c2CCC[C@@]32CCCc3sc(N)c(C#N)c32)n1)[C@@H]1CCCN1C [II-203]
32 | – | 673 nM | C[C@H](Oc1cc(-c2cn(C)nn2)nc(-c2onc3c2CCC[C@@]32CCCc3sc(N)c(C#N)c32)n1)[C@@H]1CCCN1C [I-16]
33 | 584 nM | 59 nM | C[C@H](Oc1cc(N2CCOC2=O)nc(-c2noc3c2CCC[C@@]32CCCc3sc(N)c(C#N)c32)n1)[C@@H]1CCCN1C [II-143]
34 | 2870 nM | – | C[C@H](Oc1cc(-n2cncc3ccnc2-3)nc(-c2onc3c2CCC[C@@]32CCCc3sc(N)c(C#N)c32)n1)[C@@H]1CCCN1C [I-14]
35 | 1770 nM | 12 nM | C[C@H](Oc1cc(-n2cc3c(n2)CNC3)nc(-c2noc3c2CCC[C@@]32CCCc3sc(N)c(C#N)c32)n1)[C@@H]1CCCN1C [II-168]
36 | 1250 nM | – | CC(C)[C@@H]1CN(c2cc(O[C@@H](C)[C@@H]3CCCN3C)nc(-c3noc4c3CCC[C@@]43CCCc4sc(N)c(C#N)c43)n2)CCN1 [II-166]
37 | 4120 nM | – | C[C@H](O)Cn1ncc(-c2cc(O[C@@H](C)[C@@H]3CCCN3C)nc(-c3noc4c3CCC[C@@]43CCCc4sc(N)c(C#N)c43)n2)n1 [II-134]
38 | 189 nM | – | C[C@H](Oc1cc(-c2ccn([C@H]3CCOC3)n2)nc(-c2noc3c2CCC[C@@]32CCCc3sc(N)c(C#N)c32)n1)[C@@H]1CCCN1C [II-127]
39 | 4500 nM | – | C[C@H](Oc1cc([C@H]2CCNC2)nc(-c2noc3c2CCC[C@@]32CCCc3sc(N)c(C#N)c32)n1)[C@@H]1CCCN1C [II-163]
40 | 3320 nM | 30 nM | C[C@H](Oc1cc(N2CCN[C@@H](C)C2)nc(-c2noc3c2CCC[C@@]32CCCc3sc(N)c(C#N)c32)n1)[C@@H]1CCCN1C [II-162]
41 | 2690 nM | – | C[C@H](Oc1cc(-n2cnc(C(=O)N(C)C)c2)nc(-c2noc3c2CCC[C@@]32CCCc3sc(N)c(C#N)c32)n1)[C@@H]1CCCN1C [II-126]
42 | 1460 nM | 107 nM | C[C@H](Oc1cc(N2C[C@H](C)N(C)[C@@H](C)C2)nc(-c2noc3c2CCC[C@@]32CCCc3sc(N)c(C#N)c32)n1)[C@@H]1CCCN1C [II-173]
43 | 4580 nM | 23 nM | C[C@H](Oc1cc(C2=CCNCC2)nc(-c2noc3c2CCC[C@@]32CCCc3sc(N)c(C#N)c32)n1)[C@@H]1CCCN1C [II-164]
44 | 2830 nM | 4 nM | C[C@H](Oc1cc(-n2cc3c(n2)CCN(C)C3)nc(-c2noc3c2CCC[C@@]32CCCc3sc(N)c(C#N)c32)n1)[C@@H]1CCCN1C [II-141]
45 | 948 nM | – | CC(=O)N1CCN(c2cc(O[C@@H](C)[C@@H]3CCCN3C)nc(-c3noc4c3CCC[C@@]43CCCc4sc(N)c(C#N)c43)n2)CC12CC2 [II-178]
46 | – | 122 nM | C[C@H](Oc1cc(-n2cc3ccn(C[C@H]4CCOC4)c(=O)c3n2)nc(-c2noc3c2CCC[C@@]32CCCc3sc(N)c(C#N)c32)n1)[C@@H]1CCCN1C [II-204]
47 | 672 nM | – | C[C@H](Oc1cc(-n2nccc2-c2ccncc2)nc(-c2noc3c2CCC[C@@]32CCCc3sc(N)c(C#N)c32)n1)[C@@H]1CCCN1C [II-131]
48 | 361 nM | – | C[C@H](Oc1cc(-c2ccn(Cc3ncco3)n2)nc(-c2noc3c2CCC[C@@]32CCCc3sc(N)c(C#N)c32)n1)[C@@H]1CCCN1C [II-128]
49 | 9790 nM | – | C[C@H](Oc1cc(N2C[C@@H]3[C@@H](N)[C@@H]3C2)nc(-c2noc3c2CCC[C@@]32CCCc3sc(N)c(C#N)c32)n1)[C@@H]1CCCN1C [II-167]
